In brackets after ≈: the same amount, converted by molar mass.

The data set is described as follows: Paclitaxel plasma solubility (excess drug equilibrated in rodent plasma, HPLC). The data set is classed as physicochemical. The note with it: 37°C, 24 h equilibration. From the text: where dC/dt is the dissolution rate, D is the solute diffusion coefficient, V is the volume of the dissolution medium, hd is the diffusion boundary thickness, S is the surface area of the solute, Cs is the saturation solubility of the solute, and Ct(t) is the bulk solute concentration. The stability of the crystalline nanosuspension was monitored for a period of 3 weeks for particle size, PXRD, and chemical stability (by HPLC). […] Excess drug was then removed by centrifugation which was followed by protein precipitation, and the concentration was measured by HPLC with an external standard.

Compound `CC(=O)O[C@H]1C(=O)[C@@]2(C)[C@H]([C@H](OC(=O)c3ccccc3)[C@]3(O)C[C@H](OC(=O)[C@H](O)[C@@H](NC(=O)c4ccccc4)c4ccccc4)C(C)=C1C3(C)C)[C@]1(OC(C)=O)CO[C@@H]1C[C@@H]2O` [paclitaxel] showed a solubility at 24 h of 40 µg/mL (≈ 46.8 µM).

A word on the solubility: it is the dissolved amount per volume that the medium holds. Lower therefore signals a poorly soluble substance.

The values above are taken from article PMC3994220 (Nanoscale Research Letters, 2014).
